Reference: BindingDB's records for doi:10.1016/s0960-894x(02)00941-1 (Bristol-Myers Squibb Pharmaceuticals, 2003)

Target: T1, Tumor necrosis factor receptor superfamily member 1A (Homo sapiens, UniProt P19438)
T1 sequence (P19438 whole entry): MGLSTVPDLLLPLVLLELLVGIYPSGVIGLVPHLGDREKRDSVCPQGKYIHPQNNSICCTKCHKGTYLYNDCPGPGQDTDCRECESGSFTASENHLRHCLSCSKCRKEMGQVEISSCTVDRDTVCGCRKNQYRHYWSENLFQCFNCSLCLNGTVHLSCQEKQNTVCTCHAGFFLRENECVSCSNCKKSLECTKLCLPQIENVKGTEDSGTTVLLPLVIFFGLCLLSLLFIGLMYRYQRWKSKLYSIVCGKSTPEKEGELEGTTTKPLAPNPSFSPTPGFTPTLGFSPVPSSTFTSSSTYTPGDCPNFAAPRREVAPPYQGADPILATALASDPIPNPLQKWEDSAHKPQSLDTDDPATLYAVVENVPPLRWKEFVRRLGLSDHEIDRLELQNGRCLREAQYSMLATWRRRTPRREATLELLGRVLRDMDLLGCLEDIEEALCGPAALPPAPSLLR
Test: ChEBML_212214
Source text: Inhibition of TNF-alpha binding to TNFRc1

Row | Structure (SMILES) | IC50 [nM]
1 | C=CCn1c(S)c2c(=C)c3c(OC)cc(OC)cc3n2c1=S [2-Allyl-6,8-dimethoxy-9-methyl-imidazo[1,5-a]indole-1,3-dithione] | 210
2 | C=CCn1c(S)c2c(=C)c3c(OC)cc(OC)cc3n2c1=O [2-Allyl-6,8-dimethoxy-9-methyl-1-thioxo-1,2-dihydro-imidazo[1,5-a]indol-3-one] | 210
